Like-named read-outs stand apart in the source and are kept apart here.
What was measured:
[1] = tested on: IMR90-4-derived BMECs; assay: Permeability coefficients (Pe) of radiolabeled small molecules across the IMR90-4-derived BMEC/astrocyte co-culture model
Description: For co-culture experiments, primary astrocytes were isolated as previously described^37. Briefly, cortices were isolated from P6 neonatal Sprague Dawley rats (Harlan) and minced in Hank's Balanced Salt Solution (HBSS; Sigma). […] After trituration and filtration, cells were cultured on collagen-I-coated flasks (100 μg/mL; Sigma) in DMEM containing 10% qualified heat-inactivated fetal bovine serum (FBS; Invitrogen), 10% heat-inactivated horse serum (Sigma), 2 mM L-glutamine, and 1% antibiotic-antimycotic (Invitrogen). Human embryonic kidney 293 cells (HEK cells; ATCC) were cultured in DMEM supplemented with 10% FBS, 1 mM sodium pyruvate (Sigma), 2 g/L sodium bicarbonate (Fisher Scientific), 30 mM HEPES (Sigma), and 1% antibiotic-antimycotic, and used as a non-neural cell control. Co-culture of hPSC-derived BMECs was initiated with primary rat astrocytes or HEK cells in either EC medium (called 1% PDS medium in Table 2) or 70:30 (v/v) DMEM/F12 (Sigma/Invitrogen) supplemented with 1% antibiotic-antimycotic, 2% B27 (Invitrogen), and 10% FBS^37 (called 10% FBS medium in Table 2). Trans-endothelial electrical resistance (TEER) measurements were performed using an EVOM voltohmmeter (World Precision Instruments) at the start of co-culture and every 24 h thereafter. The resistance value (Ω×cm^2) of an empty filter coated with collagen/fibronectin was subtracted from each measurement. Permeability coefficients (Pe) were evaluated after 24 h of co-culture as previously described^34. For sodium fluorescein Pe measurements, 10% FBS medium containing 1 μM sodium fluorescein solution was added to the apical chamber of the […]™ filter. 200 μL aliquots were extracted from the basolateral chamber (which contains 1.5 mL of medium) every 30 min and replaced by fresh medium. Using a fluorescent plate reader and calibration curve, the flux of fluorescein to the bottom chamber and permeability coefficients were calculated as described by Calabria et al^34. To determine the Pe of radiolabeled ligands, compounds were diluted to 0.4 μCi in transport buffer (distilled water with 0.12 M NaCl, 25 mM NaHCO3, 3 mM KCl, 2 mM MgSO4, 2 mM CaCl2, 0.4 mM K2HPO4, 1 mM HEPES, and 0.1% bovine serum albumin [BSA; Sigma]) and 0.5 mL were added to the upper chamber. 200 μL aliquots were extracted from the basolateral chamber every 15 min and replaced by fresh buffer. […] [^3H]-vincristine was purchased from American Radiolabeled Chemicals, while all other radiolabeled compounds were acquired from PerkinElmer. All compound incubations were conducted at 37° C., and the radioactive permeability experiments were carried out on a rotator. Triplicate filters were used for all permeability studies and the values listed throughout the Results section are representative of a minimum of two biological replicates.

[2] = cited from earlier work
[3] = tested on: BBB influx and efflux transporters (GLUT-1, MDR1, BCRP, MRP family, organic cation transporters); conditions: cited from earlier work
[4] = target: p-glycoprotein (Homo sapiens, UniProt P08183)
p-glycoprotein, sequence (P08183 whole entry): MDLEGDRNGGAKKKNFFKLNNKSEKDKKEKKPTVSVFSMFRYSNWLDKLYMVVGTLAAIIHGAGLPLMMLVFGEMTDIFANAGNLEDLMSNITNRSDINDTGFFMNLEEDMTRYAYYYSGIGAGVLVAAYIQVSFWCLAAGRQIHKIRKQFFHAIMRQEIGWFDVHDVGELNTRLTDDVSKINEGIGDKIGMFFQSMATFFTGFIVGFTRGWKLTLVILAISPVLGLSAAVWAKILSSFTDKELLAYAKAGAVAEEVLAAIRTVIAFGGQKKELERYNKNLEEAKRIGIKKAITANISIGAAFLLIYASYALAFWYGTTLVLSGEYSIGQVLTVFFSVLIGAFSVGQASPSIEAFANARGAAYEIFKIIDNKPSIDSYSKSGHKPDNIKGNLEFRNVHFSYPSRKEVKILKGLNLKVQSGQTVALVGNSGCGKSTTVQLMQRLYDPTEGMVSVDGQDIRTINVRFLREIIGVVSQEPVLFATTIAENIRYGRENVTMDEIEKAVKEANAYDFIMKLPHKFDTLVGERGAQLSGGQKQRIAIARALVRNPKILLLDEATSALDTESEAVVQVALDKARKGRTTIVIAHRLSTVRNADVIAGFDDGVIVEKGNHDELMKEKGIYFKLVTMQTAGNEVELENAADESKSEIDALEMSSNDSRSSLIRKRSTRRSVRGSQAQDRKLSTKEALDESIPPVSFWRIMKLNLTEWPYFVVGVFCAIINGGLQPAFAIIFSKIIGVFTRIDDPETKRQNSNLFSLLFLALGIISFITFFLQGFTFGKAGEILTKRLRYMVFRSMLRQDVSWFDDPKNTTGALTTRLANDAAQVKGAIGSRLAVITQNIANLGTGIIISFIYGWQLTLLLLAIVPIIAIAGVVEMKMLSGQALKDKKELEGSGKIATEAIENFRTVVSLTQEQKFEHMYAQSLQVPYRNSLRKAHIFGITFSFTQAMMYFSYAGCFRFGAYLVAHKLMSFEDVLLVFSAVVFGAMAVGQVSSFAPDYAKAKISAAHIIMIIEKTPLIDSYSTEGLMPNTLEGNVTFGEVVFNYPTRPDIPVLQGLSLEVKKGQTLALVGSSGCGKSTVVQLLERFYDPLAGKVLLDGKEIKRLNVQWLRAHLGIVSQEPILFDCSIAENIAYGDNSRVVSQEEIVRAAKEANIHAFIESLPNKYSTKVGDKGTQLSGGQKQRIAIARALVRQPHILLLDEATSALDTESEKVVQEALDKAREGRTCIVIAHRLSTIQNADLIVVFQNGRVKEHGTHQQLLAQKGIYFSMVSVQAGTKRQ

[5] = tested on: differentiating IMR90-4 iPSC cultures (BMEC specification); assay: Flow cytometry of PECAM-1/GLUT-1 expression in differentiating IMR90-4 cultures under Wnt inhibition; format: cell-based, human
Description: Cells were harvested via Accutase (Invitrogen) incubation for 2-3 min, fixed in 100% ice-cold methanol for 20 min, and blocked with 40% PBSG for 20 min at room temperature. Primary antibody labeling (Table 5) was performed in 10% PBSG for 1 h at room temperature. IgG controls were used at the same concentration. After a wash with 5% FBS in PBS, secondary antibodies (goat anti-rabbit Alexa 488 and goat anti-mouse Alexa 647; 1:200) in 10% PBSG were added to each sample for 30 min at room temperature. After two washes with 5% FBS in PBS, the samples were analyzed on a FACScaliber flow cytometer. PECAM-1^+ events were quantified using a PECAM-1/forward scatter dot plot referenced to a rabbit IgG control. GLUT-1^+ events were quantified using a GLUT-1/forward scatter dot plot referenced to a 4D UM culture that lacked BMECs. Events that were found in both of these positive gates were classified as PECAM-1^+/GLUT-1^+ cells. βIII tubulin and nestin expression were quantified against rabbit and mouse IgG controls, respectively. Data are presented as two-dimensional dot plots with color codes to indicate events within each gate.

[6] = tested on: differentiating IMR90-4 cultures; assay: Claudin-5 and occludin localization and western blots in differentiating cultures under XAV-939; format: cell-based, human; conditions: data not shown
Description: Cells were washed once with PBS and fixed in either 2% paraformaldehyde or 100% ice-cold methanol for 15 min. The cells were then blocked with 40% goat serum in PBS (40% PBSG). If probing for an intracellular antigen, 0.1% TX-100 was present in the 40% PBSG. The cells were then incubated in 40% PBSG containing primary antibody (see Table 5 for list) for one h at room temperature. After three washes in PBS, cells were incubated in 40% PBSG containing goat anti-rabbit Texas Red (1:500; Invitrogen) or goat anti-mouse Alexa 488 (1:500; Invitrogen). Cell nuclei were labeled with 300 nM 4′,6-Diamidino-2-pheny-lindoldihydrochloride (DAPI) for 10 min. Cells were washed three times in PBS and visualized. In situ hybridization for detection of WNT7A and WNT7B transcripts was conducted similar to the method described by Planell-Saguer et al^58. Briefly, cells were washed once with PBS and fixed in 2% paraformaldehyde for 10 min, followed by permeabilization in PBS containing 0.1% TX-100 for 5 min. Pre-hybridization was performed with a water-based solution containing 3% BSA and 4× saline-sodium citrate buffer (SSC; Fisher), followed by a 1 h hybridization in 4×SSC and 10% dextran sulfate (Fisher) at room temperature. Digoxigenin-labeled locked nucleic acid probes were purchased from Exiqon (sequences found in Table 6). […]

[7] = tested on: Wnt/β-catenin pathway; assay: Quantitative RT-PCR of genes elevated during BMEC specification under Wnt inhibition; format: cell-based, human; conditions: IMR90-4, 7 days UM; SFRP2 250 then 750 ng/mL, or 10 μM XAV-939 from day 2, versus untreated or DMSO
Description: Cells were differentiated as previously described. […] For RNA collection, cells were washed once with PBS and dissociated with trypsin or accutase. Total RNA was extracted using an RNeasy Mini Kit (Qiagen) according to the manufacturer's instructions. cDNA was generated from 1 μg of RNA using Omniscript reverse transcriptase (Qiagen) and oligo-dT primers (Invitrogen). Quantitative PCR (qPCR) was then performed using 1 μL of cDNA and iQ SYBR Green Supermix (Bio-Rad) on an iCycler (Bio-Rad). RT-PCR was also performed using GoTaq Green Master Mix (Promega). Primer sequences are supplied in Table 8. Relative expression was quantified using the comparative cycle threshold (CT) method, normalizing to glyceraldehyde-3-phosphate dehydrogenase (GAPDH) expression. Fold difference was calculated as x^−ΔΔCT, where x refers to primer efficiency calculated according LinRegPCR version 12.3^59. Transcript amplification was analyzed by 2% agarose gel electrophoresis of the qPCR or RT-PCR products.

[8] = Sodium fluorescein permeability, IMR90-4-derived BMEC/astrocyte co-culture; format: in vitro ADME; conditions: human; IMR90-4-derived BMECs, astrocyte co-culture, 1 μM sodium fluorescein; read-out: fluorescein permeability coefficient (Pe) (converted)
Description: (§1) Permeability coefficients were evaluated after 24 hours of co-culture as previously described. […] Using a fluorescent plate reader and calibration curve, the rate of fluorescene influx to the bottom chamber was calculated, and final values for permeability coefficients were then calculated according to Calabria et al.^34.

[9] = Sodium fluorescein permeability, DF19-9-11T-derived BMECs; format: in vitro ADME; conditions: human, 1 μM sodium fluorescein, read-out: fluorescein permeability coefficient (Pe), average (converted)
Description: as §1

[10] = tested on: hCMEC/D3 line; conditions: hCMEC/D3 line (ref. 9); cited from earlier work
[11] = tested on: primary human BMECs; conditions: primary human BMECs (ref. 56); cited from earlier work
[12] = tested on: p-glycoprotein, BCRP, and the MRP family; assay: Doxorubicin accumulation assay with efflux inhibitors in monocultured IMR90-4-derived BMECs; format: in vitro ADME, human; conditions: monoculture; doxorubicin 0.25 μCi, 1 h; 5 μM cyclosporin A, 1 μM Ko143 or 10 μM MK 571
[13] = tested on: p-glycoprotein, BCRP and MRP family efflux transporters; assay: Apical-to-basolateral transport of doxorubicin with efflux inhibitors, IMR90-4-derived BMEC/astrocyte model; format: in vitro ADME, human; conditions: astrocyte co-culture; 60 min; normalized to no inhibitor
[14] = efflux transporter substrates (Table 6)
[15] = IMR90-4-derived BMECs co-cultured with rat astrocytes, radiolabeled compound, apical to basolateral over 1 h, 37° C., mean ± SD of biological replicates
[16] = IMR90-4-derived BMEC/astrocyte co-culture model

CC[C@]1(O)C[C@H]2CN(CCc3c([nH]c4ccccc34)[C@@](C(=O)OC)(c3cc4c(cc3OC)N(C=O)[C@H]3[C@@](O)(C(=O)OC)[C@H](OC(C)=O)[C@]5(CC)C=CCN6CC[C@]43[C@@H]65)C2)C1 [Vincristine]
Average Pe ([1]; human, 1 h): 0.06 ± 0.02 10^−3 cm/min | Pe value ([1]; human, 1 h): 1.03 ×10⁻⁶ cm/s | Octanol/water partition coefficient (logD) [2]: 2.8

COc1cccc2c1C(=O)c1c(O)c3c(c(O)c1C2=O)C[C@@](O)(C(=O)CO)C[C@@H]3O[C@H]1C[C@H](N)[C@H](O)[C@H](C)O1 [Doxorubicin]
Transporter recognition [3, 14]: MDR1, BCRP, MRP1, MRP2

CN(C)C(=O)CCSC(SCCC(=O)O)c1cccc(/C=C/c2ccc3ccc(Cl)cc3n2)c1 (stereo not drawn) [MK 571]
transport of rhodamine 123 from the apical to basolateral chamber in the presence of inhibitor [4]: not

Oc1nc(-c2ccc(C(F)(F)F)cc2)nc2c1CSCC2 [XAV-939]
Mean per cell expression of GLUT-1 ([5]; IMR90-4, 6D UM 2D EC, 10 μM XAV-939, DMSO control 285): 272 A.U. | % GLUT-1^+/PECAM-1^+ ([5]; IMR90-4, 6D UM 2D EC, 10 μM XAV-939 from day 2 of UM, DMSO control 64%): 46% | % PECAM-1^+ overall ([5]; IMR90-4, 6D UM 2D EC, 10 μM XAV-939 from day 2 of UM, DMSO control 68%): 61% | net reduction in the overall number of PECAM-1^+/GLUT-1^+ BMECs ([5]; IMR90-4, XAV-939 versus DMSO control): 20% | claudin-5 or occludin localization ([6]; XAV-939 treatment): did not alter | amounts of claudin-5 and occludin by western blots ([6]; regardless of XAV-939 treatment): equal amounts | expression of LEF1, FST, STRA6, FZD6, SLC2A1 and ABCB1 by quantitative RT-PCR [7]: statistically significant downregulation

Inulin
Average Pe [1, 15]: 0.029 ± 0.015 10^−3 cm/min | Octanol/water partition coefficient (logD) [2]: −0.25 | Transporter recognition ([3]; compounds of the permeability screen (Table 5)): None

COc1cc2nc(N3CCN(C(=O)c4ccco4)CC3)nc(N)c2cc1OC [Prazosin]
Pe value [1, 16]: 4.77 ×10⁻⁶ cm/s | Average Pe [1, 15]: 0.29 ± 0.04 10^−3 cm/min | Octanol/water partition coefficient (logD) [2]: 2.16

Rhodamine 123
Transporter recognition [3, 14]: MDR1

O=C1OC2(c3ccc(O)cc3Oc3cc(O)ccc32)c2ccccc21 [sodium fluorescein]
Papp A→B at 1 μM [8]: 0.0367 ×10⁻⁶ cm/s | Papp A→B at 1 μM [9]: 0.085 ×10⁻⁶ cm/s | reported sodium fluorescein Pe [10]: 56.7 ×10⁻⁶ cm/s | reported sodium fluorescein Pe [11]: 53.3 ×10⁻⁶ cm/s

COc1ccc2c3c([nH]c2c1)[C@H](CC(C)C)N1C(=O)[C@H](CCC(=O)OC(C)(C)C)NC(=O)[C@@H]1C3 [Ko143]
accumulation of doxorubicin in the presence of inhibitor [12]: increased | transport of doxorubicin from the apical to basolateral chamber in the presence of inhibitor [13]: 1.3 fold | Transporter recognition ([3]; efflux transporter inhibitors (Table 6)): BCRP

COc1cc2c(c(OC)c1OC)-c1ccc(OC)c(=O)cc1[C@@H](NC(C)=O)CC2 [Colchicine]
Pe value [1, 16]: 1.53 ×10⁻⁶ cm/s | Average Pe [1, 15]: 0.09 ± 0.1 10^−3 cm/min | Octanol/water partition coefficient (logD) [2]: 1.03

CN1C(=O)CN=C(c2ccccc2)c2cc(Cl)ccc21 [Diazepam]
Pe value [1, 16]: 18.5 ×10⁻⁶ cm/s | Average Pe [1, 15]: 1.11 ± 0.45 10^−3 cm/min

OC[C@H]1O[C@@](CO)(O[C@H]2O[C@H](CO)[C@@H](O)[C@H](O)[C@H]2O)[C@@H](O)[C@@H]1O [Sucrose]
Octanol/water partition coefficient (logD) [2]: −3.3

B1: SFRP2: mouse secreted protein that binds to soluble Wnts and prevents upstream activation of the Wnt pathway (protein, UniProt P97299 25-295, looked up)
Secreted frizzled-related …: LFLFGQPDFSYKRSNCKPIPANLQLCHGIEYQNMRLPNLLGHETMKEVLEQAGAWIPLVMKQCHPDTKKFLCSLFAPVCLDDLDETIQPCHSLCVQVKDRCAPVMSAFGFPWPDMLECDRFPQDNDLCIPLASSDHLLPATEEAPKVCEACKTKNEDDNDIMETLCKNDFALKIKVKEITYINRDTKIILETKSKTIYKLNGVSERDLKKSVLWLKDSLQCTCEEMNDINAPYLVMGQKQGGELVITSVKRWQKGQREFKRISRSIRKLQC
expression of LEF1, FST, STRA6, FZD6, SLC2A1 and ABCB1 by quantitative RT-PCR [7]: statistically significant downregulation

Source: patent US9902940B2, “Human blood-brain barrier endothelial cells derived from pluripotent stem cells and blood-brain barrier model thereof” (Wisconsin Alumni Research Foundation, priority 2010, dated 2018)
